This is an account of results in patent US20240190856A1, “MELANOCORTIN-4 RECEPTOR AGONIST” (LG CHEM, LTD., priority 2021, published 2024).

Common to all, as to assay type: cell-based
Experiment [1] deals with T1, MC4R (Homo sapiens, UniProt P32245). Put plainly: β-arrestin assay (Pathhunter eXpress β-arrestin U2OS cell line). Further details: expressed in transfected cells; host or cells: U2OS (Pathhunter eXpress β-arrestin cell line). The note with it: U2OS cells, PK-tagged MC4R and EA-tagged β-arrestin, 37° C. for 90 minutes. The text has this:
The melanocortin receptor is a type of G-protein coupled receptor (GPCR) and regulates various physiological responses by transducing signals from many neurotransmitters. When GPCR is phosphorylated, β-arrestin is bound to the phosphorylated part of the receptor and plays an important role in activating various signaling pathways in cells through interaction with other proteins. It is known that, when the melanocortin receptor interacts with an agonist, β-arrestin is mobilized and is involved in the β-arrestin-mediated signaling pathway. Therefore, the activity of the melanocortin receptor can be evaluated through the measurement of β-arrestin.
A Pathhunter eXpress β-arrestin cell line (U2OS cell line) in which Prolink (PK)-tagged MC1R, MC3R, MC4R, MC5R and Enzyme acceptor (EA)-tagged β-arrestin were expressed together was established. When the MCR-PK portion of this cell line is activated, β-arrestin-EA is mobilized, and enzyme acceptor (EA) and Prolink (PK), which are the β-galactosidase enzyme fragments, interact. The activated enzyme hydrolyzes the substrate by β-galactosidase activity to produce a chemiluminescent signal, so that the activity can be measured. After the Pathhunter eXpress β-arrestin cell line (U2OS cell line) was incubated, the cells were inoculated into each well of the cell culture plate and incubated for 48 hours in a 37° C. incubator in the presence of 5% CO2. After the incubation, 5 μl of the sample diluted 5 times with buffer was added, the vehicle concentration was set to 1%, and the MC4R agonist compound diluted at each step concentration was added, followed by reaction at 37° C. for 90 minutes. The activity (%) of each agonist compound is expressed as 100% ×(average RLU value of sample−average RLU value of vehicle control)/(average maximum value of control ligand−average RLU value of vehicle control), and the value was analyzed by CBIS data analysis suite (ChemInnovation, CA).
Target sequence in this assay (P32245 whole entry, species assumed): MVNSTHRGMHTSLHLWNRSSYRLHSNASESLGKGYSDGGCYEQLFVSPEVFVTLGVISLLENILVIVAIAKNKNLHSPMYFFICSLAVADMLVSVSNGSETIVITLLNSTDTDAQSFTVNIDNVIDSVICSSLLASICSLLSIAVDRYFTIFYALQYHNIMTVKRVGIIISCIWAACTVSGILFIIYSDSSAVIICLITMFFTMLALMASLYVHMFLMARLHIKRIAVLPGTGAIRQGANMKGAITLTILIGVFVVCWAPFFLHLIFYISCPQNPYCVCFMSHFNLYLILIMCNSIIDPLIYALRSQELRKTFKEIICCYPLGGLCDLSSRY
Target sequence in this assay (P32121 whole entry partner, species assumed): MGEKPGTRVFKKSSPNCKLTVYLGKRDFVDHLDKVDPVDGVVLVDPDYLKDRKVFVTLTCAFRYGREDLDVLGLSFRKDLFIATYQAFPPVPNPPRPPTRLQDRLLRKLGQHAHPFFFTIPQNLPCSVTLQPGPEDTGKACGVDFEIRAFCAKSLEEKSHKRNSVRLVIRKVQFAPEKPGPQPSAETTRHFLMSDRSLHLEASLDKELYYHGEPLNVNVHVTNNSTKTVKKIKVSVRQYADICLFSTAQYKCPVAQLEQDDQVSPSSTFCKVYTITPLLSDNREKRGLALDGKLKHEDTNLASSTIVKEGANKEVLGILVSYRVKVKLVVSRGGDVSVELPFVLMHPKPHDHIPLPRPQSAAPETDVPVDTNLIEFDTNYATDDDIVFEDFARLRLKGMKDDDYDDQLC

Experiment [2] addresses T2, MC4R (melanocortin-4 receptor) (Homo sapiens, UniProt P32245).
T2 construct: expressed in transfected cells
The experiment can be described thus: Luciferase assay (CRE-LUC, HEK MC4R-Luc cells). The following applies: 5 h incubation, concentration inducing 50% of each agonist's own maximum luminescence. As to the method:
In order to measure the agonist ability against MC4R (melanocortin-4 receptor), a cell line that permanently expresses the luciferase gene (CRE-LUC) under the control of MC4R and CRE (cAMP response element) was established. After a mammalian cell expression vector (pCDNA3 (Neo)) (Invitrogen) containing the MC4R gene was prepared, human embryonic kidney (HEK) cell lines were transformed by using Lipofectamine 2000 (Invitrogen) together with a vector (pCRE-Luc)(Stratagen) expressing a luciferase gene (CRE-LUC) under the control of a cAMP response element (CRE). Transformed cell lines (HEK MC4R-Luc) were incubated in a 37° C. incubator in the presence of 5% CO2 for 24 hours by using Dulbecco's Modified Eagles Medium (DMEM) containing 10% Heat-Inactivated Fetal Bovine Serum (GIBCO/BRL). The cell lines were incubated for four days in the presence of Dulbecco's Modified Eagles Medium (DMEM) containing 10 ml of selection medium (10% Heat-Inactivated Fetal Bovine Serum (GIBCO/BRL), 100 unit/ml of penicillin (GIBCO/BRL), 100 unit/ml of streptomycin (GIBCO/BRL), 800 μg/ml of Geneticin (G418) (GIBCO/BRL). The process of removing cells killed by the selection medium by replacing the medium with 10 ml of a new selection medium was repeated three times, once every 4 days. Individual colonies formed by the finally selected and propagated clones were transferred under a microscope to a 24-well cell culture plate containing 1 ml of selection medium per well and incubated for 4 days. Forskolin (SIGMA) was treated to a final concentration of 10 μM, and then incubated for five hours in a 37° C. incubator in the presence of 5% CO2. Each well was treated with 50 μl of a Bright-Glo luciferase reagent (Promega) and left at room temperature for 15 minutes, and then the luminescence of each well was measured by using a luminometer (Victor).
HEK MC4R-Luc cells were added to each well of a 96-well luminometer cell culture plate (Costar) to a size of 2.5×10^4 cells in 100 μl of a culture medium and then incubated in a 37° C. incubator in the presence of 6% CO2 for 18 hours. […] Each well was treated with 50 μl of a Bright-Glo luciferase reagent (Promega) and left at room temperature for five minutes, and then the luminescence of each well was measured by using a luminometer (Victor). […] EC0.5 MSH is expressed as a concentration that induces 50% of the maximum amount of luminescence that can be induced by NDP-α-MSH, and EC50 is expressed as a concentration that induces 50% of the maximum amount of luminescence that can be induced by each agonist. The measurements were measured using statistical software (Prizm).

Experiment [3] concerns the target T1, MC4R. Put plainly: cAMP assay (cAMP Hunter Gs-coupled CHO-K1 cell line). Further details: expressed in transfected cells; host or cells: CHO-K1 (cAMP Hunter Gs-coupled cell line). The note with it: CHO-K1 cells overexpressing MC4R, 37° C. for 30 minutes. An excerpt:
The melanocortin receptor is a type of G-protein coupled receptor (GPCR), and the main role of G-protein is to activate secondary transducers to regulate cellular responses to many physiological stimuli through signal transduction. MC4R is a Gs-coupled receptor, and it is known that if MC4R interacts with an agonist, adenylate cyclase (AC) is activated to increase the concentration of cyclic AMP (cAMP), which is one of the secondary transducers in cells. Therefore, it is possible to evaluate the activity of melanocortin receptors by measuring the generation of cAMP signals.
After cAMP Hunter Gs-coupled cell lines (CHO-K1 cell line) in which each of MC1R, MC3R, MC4R and MC5R was overexpressed were established so that the increase in the cAMP level in cells due to agonist reaction was measurable, the cells were inoculated into each well of a white cell culture plate and incubated for 24 hours in a 37° C. incubator in the presence of 5% CO2. After the incubation, the medium was removed, and 15 μl of a 2:1 HBBS/10 mM HEPES:cAMP XS+Ab reagent was added. After 5 μl of the sample diluted 4 times with buffer was added, the vehicle concentration was set to 1%, and the MC4R agonist compound diluted at each step concentration was added, followed by reaction at 37° C. for 30 minutes. The activity (%) of each agonist compound is expressed as 100% ×(average RLU value of sample'average RLU value of vehicle control)/(average RLU value of max control−average RLU value of vehicle control), and the value was analyzed by CBIS data analysis suite (ChemInnovation, CA).
Target sequence in this assay (P32245 whole entry, species assumed): as the sequence (P32245 whole entry, species assumed) above
(In general: cAMP levels reflect the balance of adenylyl cyclase and phosphodiesterase activity.)

Structures can show the parent of a compound that is named as a salt.

T2 sequence (P32245 whole entry, species assumed): as above

As a reminder, the EC50 is the concentration at which the effect is half-maximal. A higher EC50 goes with lower potency in that assay. Turning to `CC(C)(C)C(=O)N([C@H]1C[C@@H](C(=O)N2CCOCC2)N(C(=O)[C@@H]2CN(C(C)(C)C)C[C@H]2c2ccc(F)cc2F)C1)[C@H]1CC[C@@H](C)CC1` [Example 1, N-((3S,5S)-1-((3S,4R)-1-(tert-butyl)-4-(2,4-difluorophenyl)pyrrolidine-3-carbonyl)-5-(morpholine-4-carbonyl)pyrrolidin-3-yl)-N-((1s,4R)-4-methylcyclohexyl)pivalamide hydrochloride], the figures for the EC50 (at MC4R [1]; in experiment [2]; at MC4R [3]) were 8.02 nM, 0.629 nM and 58.9 nM, respectively.
As for `CC(C)C(=O)N([C@H]1C[C@@H](C(=O)N2CCOCC2)N(C(=O)[C@@H]2CN(C(C)(C)C)C[C@H]2c2ccc(F)cc2F)C1)[C@H]1CC[C@@H](C)CC1` [Example 2, N-((3S,5S)-1-((3S,4R)-1-(tert-butyl)-4-(2,4-difluorophenyl)pyrrolidine-3-carbonyl)-5-(morpholine-4-carbonyl)pyrrolidin-3-yl)-N-((1s,4R)-4-methylcyclohexyl)isobutyramide hydrochloride], the EC50 on MC4R [1] is 15 nM; in experiment [2] it was 2.47 nM; on MC4R [3] it was 59.6 nM.
Regarding `CC(C)C(=O)N([C@H]1C[C@@H](C(=O)N2CCOCC2)N(C(=O)[C@@H]2CN(C(C)(C)C)C[C@H]2c2ccc(Cl)cc2F)C1)[C@H]1CC[C@@H](C)CC1` [Example 3, N-((3S,5S)-1-((3S,4R)-1-(tert-butyl)-4-(4-chloro-2-fluorophenyl)pyrrolidine-3-carbonyl)-5-(morpholine-4-carbonyl)pyrrolidin-3-yl)-N-((1s,4R)-4-methylcyclohexyl)isobutyramide hydrochloride], the EC50 at MC4R [1] was 4.5 nM; in experiment [2], 0.922 nM; on MC4R [3] it was 49.6 nM.
Taken in the same sequence, the figures for `CC(C)(C)C(=O)N([C@H]1C[C@@H](C(=O)N2CCOCC2)N(C(=O)[C@@H]2CN(C(C)(C)C)C[C@H]2c2ccc(Cl)cc2F)C1)[C@H]1CC[C@@H](C)CC1` [Example 4, N-((3S,5S)-1-((3S,4R)-1-(tert-butyl)-4-(4-chloro-2-fluorophenyl)pyrrolidine-3-carbonyl)-5-(morpholine-4-carbonyl)pyrrolidin-3-yl)-N-((1s,4R)-4-methylcyclohexyl)pivalamide hydrochloride] were 4.2 nM, 0.555 nM and 26.2 nM.
For `CC1(C)CCC(N(C(=O)C(C)(C)C)[C@H]2C[C@@H](C(=O)N3CCOCC3)N(C(=O)[C@@H]3CN(C(C)(C)C)C[C@H]3c3ccc(Cl)cc3)C2)CC1` [Example 6, N-((3S,5S)-1-((3S,4R)-1-(tert-butyl)-4-(4-chlorophenyl)pyrrolidine-3-carbonyl)-5-(morpholine-4-carbonyl)pyrrolidin-3-yl)-N-(4,4-dimethylcyclohexyl)pivalamide hydrochloride], the EC50 on MC4R [1] came to 13 nM; in experiment [2], 4.04 nM; on MC4R [3] it was 51.4 nM.
